{"source": "patent US7741040B2", "about": "“Methods and compositions for detecting cancers” (Case Western Reserve University, priority 2002, dated 2010)", "test_system": "SLC5A8 silenced colon cancer cell lines", "test": "RT-PCR detection of SLC5A8 transcript after 5-azacytidine treatment", "assay_type": "cell-based, human", "conditions": "5-azacytidine 1.5 μg/ml, 24 h on day 2 and day 5", "experimental": "Amplification and Sequencing of SLC5A8. The primers used for RT-PCR assay of a SLC5A8 fragment are 5′-TCCGAGGTCTACCGTTTTG-3′, and 5′-GGGCA GGGGC ATAAA TAAC-3′. The PCR parameters were 35 cycles of 95° C. (45s), 54° C. (45s), 72° C. (60s), 72° C. (10 min), and 4° C. to cool. The full length SLC5A8 ORF was amplified using primers: 5′TCCGGGATAAGAAGTGCG-3′ and 5′-[…]-3′. GC-rich cDNA polymerase kit (Clonetech) was used and PCR parameters were 35 cycles of 95° C. (45s), 62° C. (45s), 72° C. (90s), 72° C. (10 min), and 4° C. to cool. Sequencing primers were: 5′-TTTGT GGTGGTCA TCAGCG-3′,5′-GGGCAGGGGCATAAATAAC-3′,5′-AGGCTGTG GTGATGCAAGGT-3′,5′-TTAATGCCTTAGCAGCAG-3′, and 5′-CCTCCACTT CCTGAGAGAAC-3′.\n5-Azacytidine Treatment. The treatment was performed as described previously (Veigl et al., 1998, Proc Natl Acad Sci USA 95: 8698-8702). Briefly, cells were treated for 24 h on day 2 and day 5 with 5-azacytidine (Sigma) at 1.5 μg/ml. The medium was changed 24 h after addition of the 5-azacytidine (i.e., on day 3 and day 6).", "data": [{"smiles": "Nc1ncn([C@@H]2O[C@H](CO)[C@@H](O)[C@H]2O)c(=O)n1", "note": "[5-azacytidine]", "values": [{"measurement": "reactivation of SLC5A8 expression (cell lines reactivated of cell lines tested)", "result": "6 of 8"}]}]}
